The test system of test [1] is thapsigargin-induced IFN-g production in human whole blood. The test is classed as cell-based.
The test system of test [2] is thapsigargin-induced IL-2 production in human whole blood.
Setting [3] is: read-out: Analogue Activity (IC50) WB/IFNg.
Where [4] appears, read: read-out: Analogue Activity (IC50) WB/IL-2.

Where two headings read alike, the source gives them in different places. Bridge positions count the residues as written; N and C are the ends. Peptide text beside a SMILES is read from it.

For “GVIINVACKISRQCLEPCKKAGMRFGKCMNGKCHCTPK [Ala-7 (SEQ ID No: 1406)]”, the figures for the IC50 in test [1] (read-out: Average IC50 IFNg) and in test [2] (read-out: Average IC50 IL-2) were 0.0591 nM and 0.0675 nM, respectively.

With `CC[C@H](C)[C@@H]1NC(=O)[C@H](CCCCN)NC(=O)[C@@H](NC(=O)[C@H](CCCNC(=N)N)NC(=O)[C@@H](NC(=O)[C@H](CC(N)=O)NC(=O)[C@@H](NC(=O)[C@@H](NC(=O)[C@@H](NC(=O)CN)C(C)C)[C@@H](C)CC)[C@@H](C)CC)C(C)C)CSSC[C@@H]2NC(=O)[C@H](CCCCN)NC(=O)CNC(=O)[C@H](Cc3ccccc3)NC(=O)[C@H](CCCNC(=N)N)NC(=O)[C@H](CCSC)NC(=O)CNC(=O)[C@H](C)NC(=O)[C@H](CCCCN)NC(=O)[C@H](CCCCN)NC(=O)[C@@H]3CSSC[C@@H](C(=O)N[C@H](C(=O)N4CCC[C@H]4C(=O)N[C@@H](CCCCN)C(=O)O)[C@@H](C)O)NC(=O)[C@H](Cc4c[nH]cn4)NC(=O)[C@H](CSSC[C@H](NC(=O)[C@H](CCC(N)=O)NC(=O)[C@H](CCCNC(=N)N)NC(=O)[C@H](CO)NC1=O)C(=O)N[C@@H](CC(C)C)C(=O)N[C@@H](CCC(=O)O)C(=O)N1CCC[C@H]1C(=O)N3)NC(=O)[C@H](CCCCN)NC(=O)CNC(=O)[C@H](CC(N)=O)NC(=O)[C@H](CCSC)NC2=O` [K7R] (H-GVIINVRCKISRQCLEPCKKAGMRFGKCMNGKCHCTPK-OH; disulfide 8-28, 14-33, 18-35), the IC50 came to 0.071 nM in test [1] (setting [3]) and 0.078 nM in test [2] (setting [4]).

For `CC[C@H](C)[C@@H]1NC(=O)[C@H](CCCCN)NC(=O)[C@@H](NC(=O)[C@H](CCCCN)NC(=O)[C@@H](NC(=O)[C@H](CC(N)=O)NC(=O)[C@@H](NC(=O)[C@@H](NC(=O)[C@@H](NC(=O)CN)C(C)C)[C@@H](C)CC)[C@@H](C)CC)C(C)C)CSSC[C@@H]2NC(=O)[C@H](CCCCN)NC(=O)CNC(=O)[C@H](Cc3ccccc3)NC(=O)[C@H](CCCNC(=N)N)NC(=O)[C@H](CCSC)NC(=O)CNC(=O)[C@H](C)NC(=O)[C@H](CCCCN)NC(=O)[C@H](CCCCN)NC(=O)[C@@H]3CSSC[C@@H](C(=O)N[C@H](C(=O)N4CCC[C@H]4C(=O)N[C@@H](CCCCN)C(=O)O)[C@@H](C)O)NC(=O)[C@H](Cc4c[nH]cn4)NC(=O)[C@H](CSSC[C@H](NC(=O)[C@H](C)NC(=O)[C@H](CCCNC(=N)N)NC(=O)[C@H](CO)NC1=O)C(=O)N[C@@H](CC(C)C)C(=O)N[C@@H](CCC(=O)O)C(=O)N1CCC[C@H]1C(=O)N3)NC(=O)[C@H](CCCCN)NC(=O)CNC(=O)[C@H](CC(N)=O)NC(=O)[C@H](CCSC)NC2=O` [Q13A] (H-GVIINVKCKISRACLEPCKKAGMRFGKCMNGKCHCTPK-OH; disulfide 8-28, 14-33, 18-35), the IC50 was determined as 0.133 nM in test [1] (setting [3]) and 0.148 nM in test [2] (setting [4]).

For the compound `CC[C@H](C)[C@@H]1NC(=O)[C@H](CCCCN)NC(=O)[C@@H](NC(=O)[C@H](C)NC(=O)[C@@H](NC(=O)[C@H](CC(N)=O)NC(=O)[C@@H](NC(=O)[C@@H](NC(=O)[C@@H](NC(=O)CN)C(C)C)[C@@H](C)CC)[C@@H](C)CC)C(C)C)CSSC[C@@H]2NC(=O)[C@H](CCCCN)NC(=O)CNC(=O)[C@H](Cc3ccccc3)NC(=O)[C@H](CCCNC(=N)N)NC(=O)[C@H](CCSC)NC(=O)CNC(=O)[C@H](C)NC(=O)[C@H](CCCCN)NC(=O)[C@H](CCCCN)NC(=O)[C@@H]3CSSC[C@@H](C(=O)N[C@H](C(=O)N4CCC[C@H]4C(=O)N[C@@H](CCCCN)C(=O)O)[C@@H](C)O)NC(=O)[C@H](Cc4c[nH]cn4)NC(=O)[C@H](CSSC[C@H](NC(=O)[C@H](CCC(N)=O)NC(=O)[C@H](CCCNC(=N)N)NC(=O)[C@H](CO)NC1=O)C(=O)N[C@@H](CC(C)C)C(=O)N[C@@H](CCC(=O)O)C(=O)N1CCC[C@H]1C(=O)N3)NC(=O)[C@H](CCCCN)NC(=O)CNC(=O)[C@H](CC(N)=O)NC(=O)[C@H](CCSC)NC2=O` [K7A] (H-GVIINVACKISRQCLEPCKKAGMRFGKCMNGKCHCTPK-OH; disulfide 8-28, 14-33, 18-35), the IC50 turned out to be 0.0591 nM in test [1] (setting [3]) and 0.0675 nM in test [2] (setting [4]).
